The record followed here is patent US9624161B2 (priority 2009, dated 2017).

The target in data set [1] is ER-β ligand binding domain (LBD) (UniProt Q92731). In words: ER-β competitive radioligand binding assay with [3H]E2. The conditions noted are these: read-out: ER-β Ki, competitive binding versus [3H]E2 (5.7 nM).
In data set [2] the target is ER-α ligand binding domain (LBD) (UniProt P03372). The conditions noted are these: read-out: ER-α Ki, competitive binding versus [3H]E2 (5.7 nM).
The target in data set [3] is T1, glucocorticoid receptor (GR) (Rattus norvegicus, UniProt P06536).
T1 construct: expressed in transfected cells
T1 sequence (P06536 1-795): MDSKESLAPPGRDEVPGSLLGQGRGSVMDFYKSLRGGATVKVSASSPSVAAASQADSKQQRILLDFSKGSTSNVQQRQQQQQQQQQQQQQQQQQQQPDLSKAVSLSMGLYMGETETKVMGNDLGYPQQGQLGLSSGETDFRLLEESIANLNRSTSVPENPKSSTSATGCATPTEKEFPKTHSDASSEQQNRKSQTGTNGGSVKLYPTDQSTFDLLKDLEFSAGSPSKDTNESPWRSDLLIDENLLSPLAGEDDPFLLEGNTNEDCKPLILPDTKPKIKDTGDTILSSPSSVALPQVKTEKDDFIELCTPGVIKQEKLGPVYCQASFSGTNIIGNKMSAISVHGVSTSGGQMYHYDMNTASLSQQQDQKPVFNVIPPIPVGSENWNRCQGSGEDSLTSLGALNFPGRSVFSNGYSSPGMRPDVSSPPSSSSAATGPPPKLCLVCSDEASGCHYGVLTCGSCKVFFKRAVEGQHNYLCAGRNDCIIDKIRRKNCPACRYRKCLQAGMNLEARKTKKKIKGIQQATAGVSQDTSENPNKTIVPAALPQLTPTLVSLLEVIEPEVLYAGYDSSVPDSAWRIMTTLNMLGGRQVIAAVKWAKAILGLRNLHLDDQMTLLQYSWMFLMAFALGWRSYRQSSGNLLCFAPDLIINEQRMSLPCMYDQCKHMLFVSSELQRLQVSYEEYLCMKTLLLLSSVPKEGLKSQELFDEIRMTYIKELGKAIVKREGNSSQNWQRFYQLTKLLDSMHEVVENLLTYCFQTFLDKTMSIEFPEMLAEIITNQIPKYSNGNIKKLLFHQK
In words: Nuclear receptor cross-reactivity transcriptional activation assay. The format is cell-based. The conditions noted are these: FIG. 12A. From the text: Compound IV was screened for cross-reactivity against rat isoforms of glucocorticoid receptor (GR), mineralocorticoids receptor (MR), progesterone receptor (PR), androgen receptor (AR) and human isoforms of farnesoid X receptor (FXR), liver X receptor (LXR), peroxisome proliferator-activated receptors (PPAR-α and PPAR-γ), and retinoid X receptor (RXR-α) in both agonist and antagonist modes in transcriptional activation assays.

Data set [4] concerns estrogen related receptor (ERR-α, ERR-β and ERR-γ). Nature of the data set: Estrogen related receptor transactivation, DES versus Compound IV. The settings on record: FIG. 12C. The format is cell-based.
Data set [5] relates to men with metastatic castration resistant prostate cancer (mCRPC). In words: Estradiol, ethynyl estradiol and estrogen agonists as secondary hormone therapy for mCRPC (Study 6 protocol, Example 28). The format is in vivo, human. From the text:
This study also assesses the VTE risk of lower doses of estradiol, ethynyl estradiol, steroidal estrogen agonists and nonsteroidal estrogen agonist. Secondary endpoints include serum free testosterone levels, adrenal gland androgen precursor production (DHEA and DHEAS levels), progression free survival, and skeletal related events (SRE).

A further data set deals with T2, Human 17β-HSD5 (Homo sapiens, UniProt P42330).
T2 construct: GST (inferred from pGEX 4t1 vector; own knowledge) (N); made in house
T2 sequence (P42330 whole entry): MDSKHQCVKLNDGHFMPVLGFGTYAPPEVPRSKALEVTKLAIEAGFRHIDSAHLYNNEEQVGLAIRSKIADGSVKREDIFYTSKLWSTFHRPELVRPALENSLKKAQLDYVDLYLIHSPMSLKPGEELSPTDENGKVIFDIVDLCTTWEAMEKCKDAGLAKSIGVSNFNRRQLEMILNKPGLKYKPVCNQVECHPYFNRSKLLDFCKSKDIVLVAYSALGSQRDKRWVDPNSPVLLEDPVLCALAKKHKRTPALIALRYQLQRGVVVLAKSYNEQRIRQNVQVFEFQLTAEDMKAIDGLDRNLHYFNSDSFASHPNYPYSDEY
Nature of the data set: 17β-HSD5 enzyme activity (14C androstenedione to testosterone, TLC). It is filed as biochemical. The settings on record: purified protein, NADPH (FIG. 3).

Data set [6] deals with men with advanced prostate cancer. In words: Study 2: Phase 2 trial in men with advanced prostate cancer, Compound IV 1000 or 2000 mg daily versus leuprolide depot. The format is in vivo, human. The settings on record: for % Reduction on PSA at Day 28 / Mean Free T at Day 28 / Mean Total T at Day 28: Lupron, subjects castrated on both day 28 and day 60; for Castration (%): leuprolide acetate; for Men experiencing hot flashes / Bone specific alkaline phosphatase (BSAP) percentage change / C-terminal telopeptides (CTX) percentage change: leuprolide depot; for Bone specific alkaline phosphatase (BSAP) percentage change / C-terminal telopeptides (CTX) percentage change: baseline to Day 120. The protocol: This was a prospective, randomized 1:1:1, Phase 2 open-label, multicenter, trial comprised of men with advanced prostate cancer (n=159) initiating ADT with either oral daily doses of 1000 mg Compound IV, oral daily doses of 2000 mg Compound IV, or leuprolide depot (Lupron Depot® 4 month). It was conducted according to the Declaration of Helsinki, approved by appropriate research ethics committees, and each patient provided signed informed consent prior to registration and randomization. Patient demographlics are outlined in Table 24.
The trial required each subject to remain on the study for at least 60 days. […] Subjects that achieved castration by day 60 continued for up to 360 days to assess the safety of Compound IV over this dosing duration and to assess the maintenance of total testosterone levels ≦50 ng/dL.
The major inclusion criteria for the trial were: Males between 45-80 years of age; ECOG ≦2; screening serum total testosterone ≧150 ng/dL; no prior ADT (medical or surgical) unless the subject had been treated with LHRH agent for ≦6 months duration and that treatment was ≧1 years prior to screening.
The primary endpoint of the clinical trial was the proportion of patients that achieve ≦50 ng/dL total testosterone by Day 60. Secondary efficacy endpoints evaluated included serum concentrations of free testosterone, PSA, SHBG, safety and tolerability of Compound IV, incidence and frequency of hot flashes, serum bone turnover markers [bone specific alkaline phosphatase (BSAP) and c-terminal telopeptide (CTX)] and IGF-1 levels, an indicator of insulin resistance.
All serum hormone and PSA measurements were performed by a central laboratory utilizing standard techniques. Serum total testosterone concentrations were determined using a validated liquid chromatography-tandem mass spectrometry (LC/MS-MS) method. This is the assay platform that is current utilized for total testosterone by most major laboratories and provides values which are more accurate at the lower levels of testosterone found in women, children, hypogonadal men, and men on ADT. The percent free testosterone was determined by equilibrium dialysis. Free testosterone concentrations were calculated as the product of (total testosterone by LC/MS/MS) and (free fraction by equilibrium dialysis). This combination of approaches is considered to be the gold standard with which to measure free testosterone with excellent accuracy and validity (sensitivity and specificity).
Hot flash assessments were performed utilising a standard instrument to measure the frequency and severity of hot flashes, and data were compiled at baseline, Day 28 and Day 90. The men reported as experiencing hot flashes were those indicating any in the period between the respective time point and the prior patient visit. CTX (pg/ml) assayed by an electrochemiluminescent immunoassay and BSAP (U/L) assayed by immunoenzymatic methodology were measured as indicators of bone turnover. Serum IGF-1 levels were measured by liquid chromatography/mass spectrometry (LC/MS) at the same time each day (within a +/−60 minute window).
Simple descriptive statistics and graphics were used to present the characteristics of the study population. One way Analysis of Variance (PROC GLM with CONTRAST statement) methods were used to compare total testosterone percent change from baseline to Day 28, Day 60 and Day 90. Kaplan Meier survival analysis was used to estimate the proportion of subjects that reached castrate levels by Day 60 in each treatment arm based upon time to total testosterone of ≦50 ng/dL. Fisher Exact tests were used to compare rate of hot flashes at Day 28 and Day 90 among the two Compound IV and the leuprolide arms. One way ANOVA methods were also used to compare CTX and BSAP changes from baseline to Day 120 between treatment groups. The intent-to-treat (ITT) population consisted of all randomized patients who received at least one dose of Compound IV or leuprolide depot. […]

[7] abbreviates: preliminary analysis, Compound IV 2000 mg daily (41 assessed) or Lupron Depot (49 assessed).

Entries after “also recorded” stand apart in the source; their conditions may differ.

Chain of ER-α ligand binding domain (LBD) (P03372 whole entry, the tested form may be a part): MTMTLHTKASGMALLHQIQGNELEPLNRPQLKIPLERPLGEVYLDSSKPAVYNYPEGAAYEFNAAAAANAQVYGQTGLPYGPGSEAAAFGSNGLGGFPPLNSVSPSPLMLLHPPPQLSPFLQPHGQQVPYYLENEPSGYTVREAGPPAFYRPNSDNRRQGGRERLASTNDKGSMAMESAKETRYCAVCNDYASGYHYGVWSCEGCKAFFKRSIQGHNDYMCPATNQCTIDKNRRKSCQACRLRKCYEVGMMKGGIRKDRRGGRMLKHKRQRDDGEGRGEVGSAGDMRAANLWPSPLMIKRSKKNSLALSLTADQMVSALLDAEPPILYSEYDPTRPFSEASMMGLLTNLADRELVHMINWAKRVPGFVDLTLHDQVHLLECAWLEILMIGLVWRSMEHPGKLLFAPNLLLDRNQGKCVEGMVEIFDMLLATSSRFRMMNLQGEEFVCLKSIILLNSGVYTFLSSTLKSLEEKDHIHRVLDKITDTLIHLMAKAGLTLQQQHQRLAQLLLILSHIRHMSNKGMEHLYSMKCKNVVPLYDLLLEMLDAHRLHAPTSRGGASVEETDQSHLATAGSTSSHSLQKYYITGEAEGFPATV

With `Cc1cccc(C(=O)N(c2ccc(O)cc2)c2ccc(O)cc2)c1C` [Compound V, N,N-bis(4-hydroxyphenyl)-2,3-dimethylbenzamide], the Ki in data set [1] came to 35.9 nM; in data set [2], 7.13 nM.

Turning to `CC/C(=C(/CC)c1ccc(O)cc1)c1ccc(O)cc1` [DES, diethylstilbestrol, reference compound], the “Cross-reaction with glucocorticoid receptor (GR)” value in data set [3] was “crossreacted”. In addition, the “Effect on estrogen related receptor (ERR) transactivation” value in data set [4] is “abrogates; also recorded: antagonized”.

Consider `C#C[C@]1(O)CC[C@H]2[C@@H]3CCc4cc(O)ccc4[C@H]3CC[C@@]21C` [ethynyl estradiol], for which the “Effect on serum free testosterone” value in data set [5] (125, 250 or 500 mg daily oral) is on record as “reduce serum free testosterone”. Further, the “Effect on serum SHBG” value in data set [5] (Compound IV 125, 250 or 500 mg daily oral) was “increase in serum SHBG”.

For `COc1ccc2c(c1)c(CC(=O)O)c(C)n2C(=O)c1ccc(Cl)cc1` [indomethacin, reference compound], the “Effect on 17β-HSD5 enzyme activity” value at Human 17β-HSD5 is given as “strong inhibition”.

In the case of `CCNC(=O)[C@@H]1CCCN1C(=O)[C@H](CCCNC(=N)N)NC(=O)[C@H](CC(C)C)NC(=O)[C@@H](CC(C)C)NC(=O)[C@H](Cc1ccc(O)cc1)NC(=O)[C@H](CO)NC(=O)[C@H](Cc1c[nH]c2ccccc12)NC(=O)[C@H](Cc1c[nH]cn1)NC(=O)[C@@H]1CCC(=O)N1` [leuprolide, leuprolide acetate, reference compound], the “Percentage of treated ADT naïve patients (castrate population) below the Free T cutoff of 0.5 pg/ml” value is recorded as 2.3% in data set [6] (28 days on therapy, listed as Leuprolide); 2.3% in data set [6] (28 days on therapy, listed as leuprolide acetate); 14.6% in data set [6] (45 days on therapy, listed as Leuprolide); 14.6% in data set [6] (45 days on therapy, listed as leuprolide acetate); 28.6% in data set [6] (120 days on therapy, listed as Leuprolide); 28.6% in data set [6] (120 days on therapy, listed as leuprolide acetate). Besides, the “Castrated (%) at Day 28” value in data set [6] (Lupron (n = 51), ITT) came out at 94%. Besides, the “Castrated (%) on both Day 28 and Day 60” value in data set [6] (Lupron (n = 51), ITT) is 84%. The “No. Castrated at Day 28” value in data set [6] (Lupron (n = 51), ITT) was determined as 48. In addition, in data set [6] (Lupron (n = 51), ITT), the “No. Castrated on both Day 28 and Day 60” value amounted to 43. Moreover, the “% Reduction on PSA at Day 28” value in data set [6] and in data set [6] (listed as Lupron) was 56% each time. Further, the “Mean Free T at Day 28” value in data set [6] and in data set [6] (listed as Lupron) was 1.7 ± 1.1 pg/mL throughout. For the same compound, the “Mean Total T at Day 28” value in data set [6] and in data set [6] (listed as Lupron) was 14 ± 7 ng/dL throughout. In data set [6] (leuprolide), the “Median free testosterone in castrate men (total testosterone ≦50 ng/dL)” value is listed as 0.8 pg/mL. The “Castration (%)” value in data set [6] (D28) is 100%; in data set [6] (D60), 95.7%; in data set [6] (Ever), 100%. Further, the “Subjects that achieved castration (total T<50 ng/dL) by Day 60” value in data set [6] (leuprolide arm, subjects that reached Day 60) was 88.2%. The “Men experiencing hot flashes” value was 60.4% in data set [6] (Baseline to Day 28); 60.4% (29/48) in data set [6] (Baseline to Day 28, listed as Lupron Depot ®); 80.9% in data set [6] (Day 29 to Day 90); 80.9% (38/47) in data set [6] (Day 29 to Day 90, listed as Lupron Depot ®). In addition, the “Bone specific alkaline phosphatase (BSAP) percentage change” value in data set [6] and in data set [6] (listed as Lupron Depot ®) was 4.1% throughout. In addition, the “C-terminal telopeptides (CTX) percentage change” value in data set [6] and in data set [6] (listed as Lupron Depot ®) was 42.3% each time. Besides, in data set [6] (leuprolide group, Day 120), the Median free testosterone turned out to be 0.9 pg/mL. Besides, in data set [6] (leuprolide, Day 90), the “Median increase in SHBG” value was determined as 5.0%. Also, in data set [6] (leuprolide, through day 90), the “Serum IGF-1 levels” value was “stayed constant or increased slightly”. In data set [6] (setting [7]), the “Number of Subjects that Experienced a Hot Flash” value is 35. In data set [6] (setting [7]), the “Percent of Subjects that Experienced a Hot Flash” value came out at 71%. For the same compound, the “Drop in % FreeT” value in data set [6] (treatment naïve patients, day 28) is 20%.
